Data reported in ChEMBL document CHEMBL1131223, “Potent antagonists of the SH2 domain of Grb2: optimization of the X+1 position of 3-amino-Z-Tyr(PO3H2)-X+1-Asn-NH2” (J Med Chem, 1998).

What was measured:
[1] = molecular target: T1, Growth factor receptor-bound protein 2 (Homo sapiens, UniProt P62993); assay: Inhibition of binding to Grb2 SH2 domain
[2] = Inhibition of binding to N-terminal p85 SH2 domain
[3] = molecular target: T2, Tyrosine-protein phosphatase non-receptor type 11 (Homo sapiens, UniProt Q06124); assay: Inhibition of interaction between the activated tyrosine kinase receptors and Shp2 SH2 domains in the Ras signal transduction pathway.
T2 sequence (Q06124 whole entry): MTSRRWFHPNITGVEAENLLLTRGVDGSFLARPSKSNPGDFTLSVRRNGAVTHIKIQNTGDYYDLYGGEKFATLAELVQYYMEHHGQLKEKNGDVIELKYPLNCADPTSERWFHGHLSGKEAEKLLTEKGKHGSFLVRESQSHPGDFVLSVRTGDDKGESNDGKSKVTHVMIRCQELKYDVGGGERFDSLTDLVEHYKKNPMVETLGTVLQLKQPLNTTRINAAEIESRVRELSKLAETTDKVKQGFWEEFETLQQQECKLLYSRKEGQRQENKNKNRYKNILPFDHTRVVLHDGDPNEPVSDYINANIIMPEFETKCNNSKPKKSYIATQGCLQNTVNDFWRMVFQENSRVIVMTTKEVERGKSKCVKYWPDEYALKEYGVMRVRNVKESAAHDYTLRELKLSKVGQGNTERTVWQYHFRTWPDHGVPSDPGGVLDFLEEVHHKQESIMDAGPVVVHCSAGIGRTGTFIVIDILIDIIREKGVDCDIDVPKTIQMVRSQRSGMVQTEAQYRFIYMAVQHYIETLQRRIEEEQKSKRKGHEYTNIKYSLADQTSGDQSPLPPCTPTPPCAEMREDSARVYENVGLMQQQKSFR

[4] = molecular target: T1, Growth factor receptor-bound protein 2; assay: Inhibition of binding to Growth factor receptor bound protein 2 (Grb2) SH2 domain
[5] = molecular target: Tyrosine-protein kinase Lck (Homo sapiens, UniProt P06239); assay: Inhibition of binding to p56 Lck tyrosine kinase SH2 domain
Tyrosine-protein kinase Lck, sequence (P06239 whole entry, the tested form may be a part): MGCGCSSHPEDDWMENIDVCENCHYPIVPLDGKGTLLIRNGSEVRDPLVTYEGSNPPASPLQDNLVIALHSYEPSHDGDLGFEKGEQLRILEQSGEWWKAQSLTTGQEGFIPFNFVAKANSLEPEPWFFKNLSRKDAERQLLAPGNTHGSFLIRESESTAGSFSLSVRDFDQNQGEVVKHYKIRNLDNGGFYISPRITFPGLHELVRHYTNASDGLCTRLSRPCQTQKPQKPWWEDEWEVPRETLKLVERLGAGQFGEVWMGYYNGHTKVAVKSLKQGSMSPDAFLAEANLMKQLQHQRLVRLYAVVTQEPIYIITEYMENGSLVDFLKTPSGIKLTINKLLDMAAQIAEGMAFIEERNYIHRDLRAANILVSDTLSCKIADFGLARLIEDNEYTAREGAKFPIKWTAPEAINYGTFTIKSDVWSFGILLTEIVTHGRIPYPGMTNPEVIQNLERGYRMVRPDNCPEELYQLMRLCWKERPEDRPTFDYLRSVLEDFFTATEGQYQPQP

| IC50 [1] [nM] | SMILES | IC50 [2] [nM] | IC50 [3] [nM] | IC50 [4] [nM] | IC50 [5] [nM] |
| --- | --- | --- | --- | --- | --- |
| 23 | NC(=O)C[C@H](NC(=O)C1(NC(=O)[C@H](Cc2ccc(OP(=O)(O)O)cc2)NC(=O)OCc2cccc(N)c2)CCCC1)C(N)=O | – | – | – | – |
| 140 | NC(=O)C[C@H](NC(=O)C1(NC(=O)[C@H](Cc2ccc(OP(=O)(O)O)cc2)NC(=O)OCc2cccc(N)c2)Cc2ccccc2C1)C(N)=O | – | – | – | – |
| 124 | NC(=O)C[C@H](NC(=O)C1(NC(=O)[C@H](Cc2ccc(OP(=O)(O)O)cc2)NC(=O)OCc2cccc(N)c2)CC1)C(N)=O | – | – | – | – |

The remaining lines, values behind:

| SMILES | IC50 [1] [nM] | IC50 [2] [nM] | IC50 [3] [nM] | IC50 [4] [nM] | IC50 [5] [nM] |
| --- | --- | --- | --- | --- | --- |
| NC(=O)C[C@H](NC(=O)C1(NC(=O)[C@@H](N)Cc2ccc(OP(=O)(O)O)c(N)c2)CCCCC1)C(N)=O | 1 | 970 | > 5000 | 4 | 6.24 |
| CC(C)(NC(=O)[C@@H](N)Cc1ccc(OP(=O)(O)O)c(N)c1)C(=O)N[C@@H](CC(N)=O)C(N)=O | 206 | – | – | – | – |
